# Experiments:
# [1] = tested on: mitochondria of brain, heart, liver and skeletal muscle; experiment: Mitochondrial antioxidant status in various tissues of young female rats; format: in vivo, rat; conditions: (−) Sch B, α-LA, α-Toc at daily 10, 5 and 70 mg/kg respectively, 15 days
# Method: The dosages were determined with reference to the equivalent amount of crude herb prescribed for human or the daily recommended intake in health supplements. The control animals received olive oil only. Twenty-four hours after the last dose, the pentobarbital-anesthetized animals were sacrificed by cardiac excision, and brain. heart, liver and skeletal muscle tissues were obtained. Tissue samples (brain, heart, liver, and skeletal muscle) were rinsed with ice-cold isotonic buffer (50 mM Tris, 0.32 M sucrose, 1 mM Na2EDTA, 0.2 mg/ml soybean trypsin inhibitor, 0.2 mg/ml bacitracine, 0.16 mg/ml benzamidine). Tissue homogenates were prepared by homogenizing 0.8 g of myocardial tissue in 8 ml ice-cold isotonic buffer and the homogenates were used for the preparation of mitochondrial fractions by differential centrifugation, as described in Chiu and Ko (2004). The mitochondrial pellets were resuspended in 1.5 ml of isotonic buffer containing 150 μl of 2 mg/ml soybean trypsin inhibitor and constituted the mitochondrial fractions. […] (St. Louis, Mo., USA). […] Aliquots (400 μl) of mitochondrial fractions were mixed with 933 μl Triton X-100 solution (0.3%, v/v, in isotonic buffer) and sonicated for 2 min on ice. The mixtures were then subjected to measurements of mitochondrial glutathione reductase (GRD), Se-glutathione peroxidase (GPX) and glutathione S-transferases (GST) activities by spectrophotometric methods, as described in Chiu et al. (2002).
# [2] = tested on: mitochondria of brain, heart, liver and skeletal muscle; experiment: Mitochondrial ATP generation capacity in various tissues of young female rats; format: in vivo, rat; conditions: 15 days; for ATP generation: (−) Sch B, α-LA, α-Toc at daily 10, 5 and 70 mg/kg respectively; for effect on mitochondrial ATP generation capacity in various tissues: α-LA 5 mg/kg, α-Toc 70 mg/kg daily
Compound,GPX ([1]; BRAIN),GRD ([1]; BRAIN),GSH ([1]; BRAIN),GST ([1]; BRAIN),α-Toc level ([1]; BRAIN),GPX ([1]; HEART),GRD ([1]; HEART),GSH ([1]; HEART),GST ([1]; HEART),α-Toc level ([1]; HEART),GPX ([1]; LIVER),GRD ([1]; LIVER),GSH ([1]; LIVER),GST ([1]; LIVER),α-Toc level ([1]; LIVER),GPX ([1]; SKELETAL MUSCLE),GRD ([1]; SKELETAL MUSCLE),GSH ([1]; SKELETAL MUSCLE),GST ([1]; SKELETAL MUSCLE),α-Toc level ([1]; SKELETAL MUSCLE),also measured
"O=C(O)CCCCC1CCSS1 (stereo not drawn) [α-LA, α-lipoic acid]",126 ± 9 percent control,131 ± 5 percent control,93 ± 2 percent control,103 ± 3 percent control,110 ± 6 percent control,105 ± 9 percent control,144 ± 11 percent control,103 ± 4 percent control,119 ± 6 percent control,111 ± 4 percent control,159 ± 10 percent control,143 ± 8 percent control,117 ± 2 percent control,112 ± 3 percent control,124 ± 13 percent control,117 ± 5 percent control,123 ± 12 percent control,154 ± 12 percent control,171 ± 19 percent control,147 ± 14 percent control,ATP generation ([2]; BRAIN): 72 ± 4 percent control; ATP generation ([2]; HEART): 68 ± 9 percent control; ATP generation ([2]; LIVER): 77 ± 5 percent control; ATP generation ([2]; SKELETAL MUSCLE): 101 ± 1 percent control; effect on mitochondrial ATP generation capacity in various tissues [2]: decreased
"Cc1c(C)c2c(c(C)c1O)CC[C@@](C)(CCC[C@H](C)CCC[C@H](C)CCCC(C)C)O2 [α-Toc, α-tocopherol]",121 ± 12 percent control,153 ± 10 percent control,119 ± 6 percent control,121 ± 5 percent control,139 ± 9 percent control,130 ± 10 percent control,243 ± 20 percent control,152 ± 9 percent control,159 ± 7 percent control,151 ± 5 percent control,169 ± 14 percent control,161 ± 5 percent control,133 ± 11 percent control,128 ± 3 percent control,214 ± 31 percent control,136 ± 7 percent control,149 ± 8 percent control,153 ± 6 percent control,176 ± 13 percent control,189 ± 11 percent control,ATP generation ([2]; BRAIN): 62 ± 8 percent control; ATP generation ([2]; HEART): 95 ± 12 percent control; ATP generation ([2]; LIVER): 83 ± 8 percent control; ATP generation ([2]; SKELETAL MUSCLE): 80 ± 8 percent control; effect on mitochondrial ATP generation capacity in various tissues [2]: decreased

# From US7531195B2, “Schisandrin B preparation” (priority 2005, dated 2009)
